Test results: patent publication US9676798B2, “Cationic oligonucleotides, automated methods for preparing same and their uses” (CENTRE NATIONAL DE LA RECHERCHE SCIENTIFIQUE (CNRS), priority 2005, dated 2017)

Tested on: Hela cells
Experiment: Penetration of cationic oligonucleotides into cells (fluorescence microscopy, propidium iodide)
Format: cell-based
Conditions: for Cell fluorescence after incubation (penetration into cells): 2 μM, four hours, serum-free MEM, no carrier
Method: Hela cells, grown in 10% (v/v) fetal calf serum containing MEM medium, were plated at 50-60×10^3 cells/well into 4-well chambered borosilicate Lab-Tek dishes one day prior to the experiment. Complete medium was replaced by 0.5 ml serum-free MEM medium. A 5′-cationic fluorescein-conjugated oligonucleotide F—S18N19 (where N19 is TCGAAGTACTCAGCGTAAG (SEQ ID NO:7)) formulation was prepared in sterile PBS. It was added to the cells to a final concentration of 2 μM. Four hours later, the medium was replaced by 1 ml of fresh serum-containing medium. A first picture was taken with a Zeiss axiovert 25 fluorescence microscope, equipped with a FITC filter (FIG. 14A, left). […] After 24 h, the medium was replaced with 1 ml of phenol red-free MEM medium. Propidium iodide (1 mM in water) was added to a final concentration of 10 μM.

| Substance | Cell fluorescence after incubation (penetration into cells) | Propidium iodide exclusion and retained fluorescence (after 24 h, propidium iodide 10 μM) |
| --- | --- | --- |
| F—N19: control fluorescein oligonucleotide without spermine, N19 is TCGAAGTACTCAGCGTAAG (5' fluorescein conjugate, no spermine, further chemistry not given here) [reference compound] | no fluorescence | – |
| F—S18N19: 5′-cationic fluorescein-conjugated oligonucleotide, N19 is TCGAAGTACTCAGCGTAAG, 18 spermine residues (5' fluorescein and 18 spermine residues attached, backbone chemistry not given here) | All cells became fluorescent | majority of propidiumless healthy cells that were still fluorescent |
